Counter-ions that a name gives are not always drawn.
Key:
[1] = system: LPS-induced pulmonary neutrophilia in rats; test: In Vivo Assay 1: LPS induced pulmonary neutrophilia in rats, intratracheal administration; set-up: species or system rat; conditions: rats; for mean inhibition of LPS-induced pulmonary neutrophilia: i.t. aqueous solution, about 2 hours prior to LPS; for estimated ED50 for inhibition of LPS-induced pulmonary neutrophilia: i.t., micronised, aqueous solution in 0.2% Tween 80 in PBS, about 2 hours prior to LPS challenge
Description: This assay is an animal model of acute inflammation in the lung—specifically neutrophilia induced by lipopolysaccharide (LPS)—and allows the study of putative inhibition of such neutrophilia (anti-inflammatory effect) by an intratracheally (i.t.) administered PDE4 inhibitor (“drug”). The PDE4 inhibitors are suitably in dry powder, aqueous solution or aqueous suspension form. I.t. administration is one model of inhaled administration, allowing topical delivery to the lung.
Animals: Male CD (Sprague Dawley Derived) rats supplied by Charles River, United Kingdom are housed in groups of 5 rats per cage, acclimatised after delivery for at least 7 days with bedding/nesting material regularly changed, fed on SDS diet R1 pelleted food given ad lib, and supplied with daily-changed pasteurised animal grade drinking water.
Device for dry powder administration: For these studies, a Penn Century DP-4 dry powder intratracheal (i.t.) delivery device (insufflator) is used for administration of a dry powder blend of vehicle (inhalation grade lactose) and the PDE4 inhibitor compound or salt of the invention (“drug”). Each device is numbered and the sample loading chamber is unscrewed from the main device and weighed. The i.t. delivery needle is also weighed. The drug+lactose blend or inhalation grade lactose (vehicle control) is then added to the sample chamber and this is then re-weighed. The sample chamber is fitted back on to the main device to prevent any drug being lost. This procedure is repeated for all of the Penn century devices to be used in the study (one separate device for each animal). After dosing to the animals, the sample chambers and needles are re-weighed in order to determine the amount of sample that was expelled from the device.
Device for aqueous solution administration: A blunt dosing needle, whose forward end is slightly angled to the needle axis, is used, with a flexible plastic portex canula inserted into the needle. The portex cannula is inserted into the lumen of the blunt stainless steel dosing needle and this is carefully inserted into the back of the animal's throat and into the trachea via the larynx. A known volume (200 microlitres) of the vehicle (0.2% Tween 80™ in saline) or of the solution (or suspension) drug composition is administered into the trachea using a plastic syringe that is attached to the portex cannula and dosing needle. A new internal cannula is used for each different drug group. After dosing, the needle is removed from the trachea and the animals are removed from the table and continually observed until they recover from the effects of anaesthesia. The animals are then returned to the holding cages and given free access to food and water, and are observed and any unusual behavioural changes noted. (Aqueous suspensions can be handled generally similarly.)
Drugs and Materials: Lipopolysaccharide (LPS) (Serotype:0127:B8, e.g. from Sigma, UK; e.g. L3129 prepared by phenol extraction) is dissolved in phosphate-buffered saline (PBS).
For dry powder, aqueous solution or aqueous suspension administration, PDE4 inhibitors are preferably used in size-reduced (e.g. micronised) form, for example according to the Micronisation Example(s) disclosed herein.
For dry powder administration of the drug, the PDE4 inhibitor compound or salt of the invention (drug) is administered as a dry powder blended with inhalation-grade (respiratory-grade) lactose, i.e. as a dry powder composition. The target quantity of dry powder composition administered i.t. to each animal is 2 mg. This remains constant throughout the studies. To achieve different doses, blends of the drug dry powder and lactose, containing different concentrations of the PDE4 inhibitor compound or salt of the invention (drug), are prepared. […]

PDE3 (from bovine aorta) = test: Inhibition of PDE3 activity (FP or SPA assays); format: biochemical; conditions: selectivity PDE4B over PDE3
Description: PDE3 can be purified from bovine aorta as described by H. Coste and P. Grondin, “Characterisation of a novel potent and specific inhibitor of type V phosphodiesterase”, Biochem. Pharmacol., 1995, 50, 1577-1585.
The ability of compounds to inhibit catalytic activity at PDE4B or 4D (human recombinant), PDE3 (from bovine aorta), PDE5 (human recombinant) or PDE6 (from bovine retina) can optionally be determined by Scintillation Proximity Assay (SPA) in a 96-well format.
Test compounds (as a solution in DMSO, suitably about 2 microlitre (ul) volume of DMSO solution) are preincubated at ambient temperature (room temperature, e.g. 19-23° C.) in Wallac Isoplates (code 1450-514) with PDE enzyme in 50 mM Tris-HCl buffer pH 7.5, 8.3 mM MgCl2, 1.7 mM EGTA, 0.05% (w/v) bovine serum albumin for 10-30 minutes (usually 30 minutes). The enzyme concentration is adjusted so that no more than 20% hydrolysis of the substrate defined below occurs in control wells without compound, during the incubation. […] Bound radioactive product is measured using a WALLAC TRILUX 1450 Microbeta scintillation counter. […] Curves are analysed using ActivityBase and XLfit (ID Business Solutions Limited, 2 Ocean Court, Surrey Research Park, Guildford, Surrey GU2 7QB, United Kingdom) Results are expressed as pIC50 values. […]

Compound	mean inhibition of LPS-induced pulmonary neutrophilia ([1]; about 10 micrograms/kg, dihydrochloride)	mean inhibition of LPS-induced pulmonary neutrophilia ([1]; about 30 micrograms/kg, dihydrochloride)	mean inhibition of LPS-induced pulmonary neutrophilia ([1]; about 100 micrograms/kg, dihydrochloride)	mean inhibition of LPS-induced pulmonary neutrophilia ([1]; about 300 micrograms/kg)	estimated ED50 for inhibition of LPS-induced pulmonary neutrophilia ([1]; dihydrochloride)	PDE4B inhibition compared with PDE3 inhibition (pIC50 values) (PDE3 (from bovine aorta))	mean inhibition of LPS-induced pulmonary neutrophilia ([1]; about 10 micrograms/kg)	mean inhibition of LPS-induced pulmonary neutrophilia ([1]; about 30 micrograms/kg)	mean inhibition of LPS-induced pulmonary neutrophilia ([1]; about 100 micrograms/kg)	estimated ED50 for inhibition of LPS-induced pulmonary neutrophilia [1]
CCc1nc2c(cnn2CC)c(NC2CCOCC2)c1CNC(=O)c1ccc(NC(=O)CCCCCCCN(C)CCO)cc1 [Example 1A1, N-{[1,6-Diethyl-4-(tetrahydro-2H-pyran-4-ylamino)-1H-pyrazolo[3,4-b]pyridin-5-yl]methyl}-4-({8-[(2-hydroxyethyl)(methyl)amino]octanoyl}amino)benzamide dihydrochloride]	about 33%	about 56%	about 76%	about 74%	approximately 12.3 micrograms/kg body weight	–	–	–	–	–
CCc1nc2c(cnn2CC)c(NC2CCOCC2)c1CNC(=O)c1ccc(NC(=O)CCCCCCCN(C)CCO)cc1 [Example 1B, N-{[1,6-diethyl-4-(tetrahydro-2H-pyran-4-ylamino)-1H-pyrazolo[3,4-b]pyridin-5-yl]methyl}-4-({8-[(2-hydroxyethyl)(methyl)amino]octanoyl}amino)benzamide]	–	–	–	–	–	inhibit PDE4B more strongly than they inhibit PDE3, PDE5 and PDE6	about 29%	about 75%	about 59%	approximately 10.1 micrograms/kg body weight
